Test results as given in ChEMBL document CHEMBL3243923, “Linked Aryl Aryloxypropanolamines as a new class of lipid catabolis agents” (J Med Chem, 1978).
Activity calls are given as the source filed them. The rule behind the calls is not given here.

What was measured:
[1] = (§1) Chronic toxicity in po dosed mouse assessed as mortality administered as qd for 21 days; format: organism-based; settings: in vivo, read-out: MNTD
[2] = test system: Mus musculus; test: Reduction of plasma insulin level in mouse at 0.01% administered every day through diet for 10 days measured on day 10 by double antibody method relative to control; format: functional; set-up: scale not given: the % may be the effect or the level left
[3] = test system: Mus musculus; test: Toxicity in mouse assessed as liver hypertrophy at 1000 mg/kg, po administered for 21 days; format: organism-based; set-up: dose 1000 mg/kg, route oral; settings: in vivo, 504 h
[4] = test system: Mus musculus; test: Effect on blood glucose level in mouse at 0.01% administered every day through diet for 10 days measured on day 10 by glucose oxidase method; format: functional, organism-based
[5] = test system: Mus musculus; test: Antiobesity activity in mouse assessed as reduction in utero fat administered every day through diet for 10 days measured after day 10; format: functional; settings: 240 h
[6] = Therapeutic index, ratio of MNTD for chronic toxicity in po dosed mouse to ED25 for antiobesity activity in mouse assessed as reduction in utero fat; format: organism-based; settings: in vivo, read-out: TI
[7] = test system: Mus musculus; test: Antiobesity activity in mouse assessed as reduction in utero fat at 0.02% administered every day through diet for 10 days measured after day 10 relative to control; format: functional; set-up: scale not given: the % may be the effect or the level left
[8] = test system: Mus musculus; test: Effect on blood glucose level in mouse at 0.04% administered every day through diet for 10 days measured on day 10 by glucose oxidase method; format: functional, organism-based
[9] = test system: Canis familiaris; test: Antiobesity activity in Beagle dog assessed as decrease in food intake at 4 mg/kg administered every day through gelatin capsule for 6 weeks measured 9 days post last dose; format: functional, organism-based; set-up: dose 4 mg/kg; settings: Canis lupus familiaris
[10] = test system: Mus musculus; test: Antiobesity activity in mouse assessed as reduction in utero fat at 0.04% administered every day through diet for 10 days measured after day 10 relative to control; format: functional; set-up: scale not given: the % may be the effect or the level left
[11] = species on record: Rattus norvegicus; test: Toxicity in rat assessed as lymphopenia; format: organism-based; settings: in vivo
[12] = test system: Mus musculus; test: Antiobesity activity in mouse assessed as reduction in utero fat at 0.01% administered every day through diet for 10 days measured after day 10 relative to control; format: functional; set-up: scale not given: the % may be the effect or the level left
[13] = test system: Mus musculus; test: as §1; format: organism-based; settings: in vivo, 504 h
[14] = test system: Mus musculus; test: Antiobesity activity in mouse assessed as reduction in utero fat at 0.005% administered every day through diet for 10 days measured after day 10 relative to control; format: functional; set-up: scale not given: the % may be the effect or the level left
[15] = test system: Canis familiaris; test: Toxicity in Beagle dog assessed as emesis up to 10 mg/kg administered through gelatin capsule for every week for 6 weeks; format: organism-based, Canis lupus familiaris; set-up: dose 10 mg/kg; settings: in vivo, 1008 h
[16] = test system: Mus musculus; test: Antiobesity activity in mouse assessed as reduction in utero fat at 0.08% administered every day through diet for 10 days measured after day 10 relative to control; format: functional; set-up: scale not given: the % may be the effect or the level left
[17] = test system: Rattus norvegicus; test: Toxicity in rat assessed as decrease in liver weight at 80 mg/kg, po qd administered for 5 days measured on day 6 relative to control; format: organism-based; set-up: dose 80 mg/kg, route oral; scale not given: the % may be the effect or the level left; settings: in vivo, 120 h
[18] = test system: Rhesus monkey; test: Toxicity in monkey assessed as estrogenic activity; format: organism-based, Macaca mulatta; settings: in vivo
[19] = test system: Mus musculus; test: Reduction of plasma insulin level in mouse at 0.04% administered every day through diet for 10 days measured on day 10 by double antibody method relative to control; format: functional; set-up: scale not given: the % may be the effect or the level left
[20] = test system: Rattus norvegicus; test: Antiobesity activity in rat assessed as reduction in body weight at 80 mg/kg, po qd administered for 5 days measured on day 6 relative to control; format: functional; set-up: scale not given: the % may be the effect or the level left
[21] = test system: Canis familiaris; test: Antiobesity activity in Beagle dog assessed as decrease in body weight at 4 mg/kg administered every day through gelatin capsule for 6 weeks measured every week for 6 weeks relative to placebo control; format: functional, Canis lupus familiaris; set-up: scale not given: the % may be the effect or the level left
[22] = test system: Rattus norvegicus; test: Toxicity in rat assessed as increase in adrenal weight at 80 mg/kg, po qd administered for 5 days measured on day 6 relative to control; format: organism-based; set-up: dose 80 mg/kg, route oral; settings: in vivo, 120 h
[23] = test system: Rattus norvegicus; test: Antiobesity activity in rat assessed as reduction in body weight at 80 mg/kg administered every day through diet for 5 weeks measured for 5 weeks relative to control; format: functional; set-up: scale not given: the % may be the effect or the level left
[24] = test system: Rattus norvegicus; test: Antiobesity activity in rat assessed as reduction in food intake at 80 mg/kg, po qd administered for 5 days measured every day for 5 days relative to control; format: functional; set-up: scale not given: the % may be the effect or the level left
[25] = test system: Canis familiaris; test: Toxicity in Beagle dog assessed as emesis up to 150 mg/kg administered through gelatin capsule for every week for 6 weeks; format: organism-based, Canis lupus familiaris; set-up: dose 150 mg/kg; settings: in vivo, 1008 h
[26] = test system: Canis familiaris; test: Antiobesity activity in Beagle dog assessed as decrease in food intake at 4 mg/kg administered every day through gelatin capsule for 6 weeks measured every day 2 hrs post feeding relative to placebo control; format: functional, Canis lupus familiaris; set-up: scale not given: the % may be the effect or the level left
[27] = species on record: Rattus norvegicus; test: Toxicity in rat assessed as estrogenic activity; format: organism-based; settings: in vivo
[28] = test system: Rattus norvegicus; test: Antiobesity activity in rat assessed as reduction in food intake at 80 mg/kg administered every day through diet for 5 weeks measured every week for 5 weeks relative to control; format: functional; set-up: scale not given: the % may be the effect or the level left
[29] = test system: Rattus norvegicus; test: Toxicity in rat assessed as increase in adrenal weight at 80 mg/kg administered every day through diet for 5 weeks measured after 5th week relative to control; format: organism-based; set-up: dose 80 mg/kg; settings: in vivo, po, 840 h
[30] = test system: Rattus norvegicus; test: Antiobesity activity in rat assessed as reduction in utero fat at 80 mg/kg administered every day through diet for 5 weeks measured after 5th week relative to control; format: functional; set-up: scale not given: the % may be the effect or the level left
[31] = test system: Rattus norvegicus; test: Toxicity in rat assessed as decrease in liver weight at 80 mg/kg administered every day through diet for 5 weeks measured after 5th week relative to control; format: organism-based; set-up: dose 80 mg/kg; scale not given: the % may be the effect or the level left; settings: in vivo, po, 840 h
[32] = test system: Rattus norvegicus; test: Toxicity in rat assessed as increase in liver weight at 100 mg/kg, po qd administered for 5 days measured on day 6 relative to control; format: organism-based; set-up: dose 100 mg/kg, route oral; settings: in vivo, 120 h
[33] = test system: Rattus norvegicus; test: Antiobesity activity in rat assessed as reduction in body weight at 100 mg/kg, po qd administered for 5 days measured on day 6 relative to control; format: functional; set-up: scale not given: the % may be the effect or the level left
[34] = test system: Rattus norvegicus; test: Antiobesity activity in rat assessed as reduction in food intake at 100 mg/kg, po qd administered for 5 days measured every day for 5 days relative to control; format: functional; set-up: scale not given: the % may be the effect or the level left
[35] = test system: Rattus norvegicus; test: Toxicity in rat assessed as increase in adrenal weight at 100 mg/kg, po qd administered for 5 days measured on day 6 relative to control; format: organism-based; set-up: dose 100 mg/kg, route oral; settings: in vivo, 120 h
[36] = test system: Rattus norvegicus; test: Antiobesity activity in rat assessed as reduction in utero fat at 100 mg/kg, po qd administered for 5 days measured on day 6 relative to control; format: functional; set-up: scale not given: the % may be the effect or the level left

CC(C)NCC(O)COc1c(C(C)(C)C)cc(/C=C/c2cccs2)cc1C(C)(C)C (stereo not drawn)
MTD at 504 h [1]: < 25 mg/kg
Activity [2]: 46%
Activity [3]: Non-toxic
Activity [4]: inactive
ED25 [5]: 6 mg/kg
selectivity ratio [6]: < 4.1
Activity [7]: 30%

CC(C)NCC(O)COc1c(C(C)(C)C)cc(/C=C/c2ccccc2)cc1C(C)(C)C (racemic) [listing 1 of 2 here]
Activity [8]: inactive
Activity [9]: inactive

C[C@H](N)Cc1ccccc1 [DEXTROAMPHETAMINE]
Activity [10]: 59%
Activity [11]: Toxic
Activity [12]: 34%

CC(C)NCC(O)COc1c(C(C)(C)C)cc(-c2cccs2)cc1C(C)(C)C.O=C(O)/C=C\C(=O)O (stereo not drawn)
Activity [13]: Toxic
Activity [14]: 33%

CCNC(C)Cc1cccc(C(F)(F)F)c1 (stereo not drawn) [FENFLURAMINE]
Activity [15]: Non-toxic
Activity [10]: inactive
Activity [16]: 20%

CC(C)NCC(O)COc1c(C(C)(C)C)cc(/C=C/c2ccccc2)cc1C(C)(C)C (racemic) [listing 2 of 2 here]
MTD at 504 h [1]: 50 mg/kg
Activity [17]: 9%
Activity [18]: Non-toxic
Activity [19]: 27%
Activity [20]: 10%
Activity [21]: 13%
Activity [22]: 21%
Activity [23]: 9%
Activity [24]: 79%
Activity [25]: Toxic
Activity [26]: 40%
Activity [27]: Non-toxic
Activity [28]: 10%
Activity [11]: Toxic
Activity [3]: Non-toxic
Activity [29]: 16%
ED25 [5]: 10 mg/kg
Activity [30]: 35%
Activity [31]: 3.4%
Activity [12]: 26%
selectivity ratio [6]: 5

CC(C)NCC(O)COc1ccc(Oc2ccc(Cl)cc2)cc1 (stereo not drawn)
MTD at 504 h [1]: 100 mg/kg
Activity [32]: 11%
Activity [3]: Non-toxic
Activity [33]: 1%
ED25 [5]: 18 mg/kg
Activity [34]: 22%
Activity [35]: 8%
Activity [36]: 18%
selectivity ratio [6]: 5.5
Activity [7]: 25%
